Test system: cells of the human continuous cell line A549
Type: cell-based
Details: 24 h
Excerpt: The mass spectrometer 101 used was a non-spatial-resolution MALDI-ToF. Also, the matrix 29 was not true-to-position applied. Thus, the mass spectra 20 represent sum spectra of an entire sample spot 16 and have not been generated according to the invention. In addition, the mass spectra 20 are not spatially resolved. It is intended here, among other things, to clarify the cell-specific mass spectrometric signals 40, the cell-specific mass spectrometric signatures 41, the non-cell-specific mass spectrometric signals 55 and a possible determination of reference values. In particular, the mass spectrum 20 in FIG. 11 (b) is only an approximate example here, since a small residual number of animal cells 23, which were already present before the cultivation step S2 (cell seed), can generate largely weak cell-specific mass spectrometric signals 40. […] The animal cells 23 are cells of the continuous human cell line A549. The complex culture medium DMEN with 10% fetal calf serum (FCS) was used as culture medium. […]
The animal cells 23 are also cells of the human continuous cell line A549. […] Since this example is a sum mass spectrum of the entire sample spot 16 not according to the invention, sporadic weak cell-specific mass spectrometric signals 40 may be detected in this example, which are largely absent when using a spatial resolution mass spectrometer 1. […]

Compound: CCCCCCCCCCCCCC[N+](C)(C)C.[Cl-] [tetradecyltrimethylammonium chloride]
- proliferation of the animal cells in the presence of the cytotoxic factor: no proliferation of the animal cells 23 occurred

Source: US20230417738A1, “Mass Spectrometric Determination of Cell Toxicity” (Bruker Daltonics GmbH & Co. KG, priority 2022, published 2023)
